In US11975003B2, “Methods and compositions for treatment of Zika virus infection” (priority 2016, dated 2024):

System: Zika virus (Malaysia, strain P 6-740)
Test: Murine Zika virus model, re-challenge on day 28 (Example 4)
Type: in vivo, AG129 mice
Experimental: In this example, the surviving mice from the study described in Example 3 were subject to re-challenge on day 28 post-infection. On day 28, the only surviving mice in a treatment group were in group 1 (7/8 mice), the normal controls (group 8, 8/8 mice) and the virus sham treated groups (group 2, 8/8 mice and group 6, 8/8/mice). All surviving mice (with the exception of normal controls) were administered a challenge of Zika virus identical to the initial challenge.
No animals in Groups 1, 2 and 6 were administered additional doses of Compound A on day 28 prior to or after re-challenge. In this experiment, the sham infected mice of groups 2 and 6 served as the control groups to analyze the effects of treatment of Compound A on immune system activation (note that mice in group 2 received the same 300 mg/kg/day dose of Compound A as the mice in group 1 on day 0). The survival of the mice was monitored through day 60 post-initial infection.

Compound: Cl.Nc1ncnc2c([C@@H]3N[C@H](CO)[C@@H](O)[C@H]3O)c[nH]c12 [Compound A]
- re-challenged mice surviving at day 60 (group 1 (300 mg/kg/day from day 0, 7 survivors), second Zika challenge day 28, no additional dosing): 7 mice
- survival after first Zika challenge on day 28 (group 2 (300 mg/kg/day from day 0, sham infected), no dosing at challenge): no survival was observed past day 51
